Measurements: publication PMC9301698 (ACS Omega, 2022)

Columns and labels:
[1] = MTT cytotoxicity assay in mammalian cells; type: cell-based; conditions: mouse, RAW 264.7 cells
RAW 264.7 cells = assay: MTT cytotoxicity assay in mammalian cells; type: cell-based; conditions: Mus musculus, RAW264.7, read-out: IC50 RAW 264.7, MTT
A549 cells = assay: MTT cytotoxicity assay, lung cancer; type: cell-based, human; conditions: Homo sapiens, A549, read-out: IC50 A549 (lung cancer)
[2] = MTT cytotoxicity assay, lung cancer; type: cell-based, human; conditions: human, A549 cells (lung cancer)
K562 cells = assay: MTT cytotoxicity assay, leukemia; type: cell-based, human; conditions: Homo sapiens, K562, read-out: IC50 K562 (leukemia), MTT
[3] = MTT cytotoxicity assay, leukemia; type: cell-based, human; conditions: human, K562 cells (leukemia)
[4] = MTT cytotoxicity assay, colorectal cancer; type: cell-based, human; conditions: human, SW480 cells (colorectal cancer)
SW480 cells = assay: MTT cytotoxicity assay, colorectal cancer; type: cell-based, human; conditions: Homo sapiens, SW480, read-out: IC50 SW480 (Colorectal cancer), MTT
HT-29 = conditions: read-out: cytotoxicity against HT-29 IC50; cited from earlier work
[5] = cytotoxicity screening, summary over cell lines; type: cell-based; conditions: human, mouse
[6] = cited from earlier work
HepG2 cell lines = conditions: read-out: cytotoxicity against HepG2 cell lines IC50; cited from earlier work
butyrylcholinesterase = conditions: read-out: butyrylcholinesterase inhibitory activity IC50; cited from earlier work
α-glucosidase [7] = biological target: T1, α-glucosidase (Saccharomyces cerevisiae, UniProt P53341); assay: colorimetric α-glucosidase inhibitory assay; type: biochemical; conditions: mean ± SD
α-amylase = biological target: T2, α-amylase (Sus scrofa, UniProt P00690); assay: α-amylase inhibitory assay; type: biochemical; conditions: at a concentration of 100 μg/mL; mean ± SD
T2 sequence (P00690 16-511): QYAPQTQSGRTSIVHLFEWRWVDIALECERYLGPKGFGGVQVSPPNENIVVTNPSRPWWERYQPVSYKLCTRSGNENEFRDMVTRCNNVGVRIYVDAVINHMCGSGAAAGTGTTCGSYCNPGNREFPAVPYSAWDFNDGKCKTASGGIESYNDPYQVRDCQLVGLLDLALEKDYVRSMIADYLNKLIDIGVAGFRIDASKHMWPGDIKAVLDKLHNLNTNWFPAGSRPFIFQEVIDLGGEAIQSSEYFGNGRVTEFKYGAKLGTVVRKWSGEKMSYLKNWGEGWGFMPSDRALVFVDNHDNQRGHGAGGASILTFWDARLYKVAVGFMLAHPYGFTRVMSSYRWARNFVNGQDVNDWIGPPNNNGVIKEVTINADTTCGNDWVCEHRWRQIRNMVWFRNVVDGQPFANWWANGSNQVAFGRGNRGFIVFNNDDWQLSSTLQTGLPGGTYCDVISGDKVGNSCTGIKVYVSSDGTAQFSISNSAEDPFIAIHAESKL

α-glucosidase [8] = biological target: T1, α-glucosidase; conditions: read-out: α-glucosidase inhibitory activity IC50; cited from earlier work

T1 sequence (P53341 whole entry): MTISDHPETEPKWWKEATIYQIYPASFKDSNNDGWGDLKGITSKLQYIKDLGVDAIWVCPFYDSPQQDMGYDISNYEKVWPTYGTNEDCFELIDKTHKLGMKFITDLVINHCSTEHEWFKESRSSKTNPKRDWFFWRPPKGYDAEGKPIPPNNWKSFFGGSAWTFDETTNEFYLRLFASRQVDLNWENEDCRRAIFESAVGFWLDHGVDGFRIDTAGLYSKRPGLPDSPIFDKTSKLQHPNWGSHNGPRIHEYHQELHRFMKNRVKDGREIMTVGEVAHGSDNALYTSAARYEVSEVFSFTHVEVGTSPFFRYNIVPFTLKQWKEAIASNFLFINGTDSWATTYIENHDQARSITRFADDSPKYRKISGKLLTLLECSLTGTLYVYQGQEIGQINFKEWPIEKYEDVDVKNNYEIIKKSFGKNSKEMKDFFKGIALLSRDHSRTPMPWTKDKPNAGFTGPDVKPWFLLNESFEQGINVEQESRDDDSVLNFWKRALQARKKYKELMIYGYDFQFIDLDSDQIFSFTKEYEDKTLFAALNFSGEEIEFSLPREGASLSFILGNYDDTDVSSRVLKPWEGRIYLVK

COc1cccc2c1C(=O)c1c(O)c3c(c(O)c1C2=O)C[C@@](O)(C(=O)CO)C[C@@H]3O[C@H]1C[C@H](N)[C@H](O)[C@H](C)O1 [doxorubicin, reference compound]
viability at 24 h, 6.25 μg/mL [1]: 4.62 ± 0.17%
viability at 24 h, 12.5 μg/mL [1]: 5.35 ± 0.27%
viability at 24 h, 25 μg/mL [1]: 4.59 ± 0.01%
viability at 24 h, 50 μg/mL [1]: 4.44 ± 0.08%
viability at 24 h, 100 μg/mL [1]: 5.96 ± 0.42%
IC50 (RAW 264.7 cells): < 11.5 µM
IC50 (A549 cells): 134 µM
viability at 6.25 μg/mL [2]: 79.6 ± 1.89%
viability at 12.5 μg/mL [2]: 74 ± 0.75%
viability at 25 μg/mL [2]: 57.7 ± 1.71%
viability at 50 μg/mL [2]: 52.8 ± 1.51%
viability at 100 μg/mL [2]: 10.1 ± 3.11%
IC50 (K562 cells): 86.8 µM
viability at 12.5 μg/mL [3]: 70.3 ± 0.89%
viability at 25 μg/mL [3]: 59.5 ± 1.8%
viability at 50 μg/mL [3]: 49.6 ± 2.2%
viability at 100 μg/mL [3]: 32.4 ± 0.89%
viability at 6.25 μg/mL [4]: 80 ± 2.48%
viability at 12.5 μg/mL [4]: 73.9 ± 1.19%
viability at 25 μg/mL [4]: 60.2 ± 1.51%
viability at 50 μg/mL [4]: 17.8 ± 1.49%
viability at 100 μg/mL [4]: 16.8 ± 1.29%
IC50 (SW480 cells): 53.4 µM

C=C(C)[C@H]1Cc2c(ccc3c2O[C@@H]2COc4cc(OC)c(OC)cc4[C@@H]2C3=O)O1 [(−)-rotenone]
IC50 (HT-29): 0.3 µM

CC(C)=CCc1c2c(c3occ(-c4ccc(O)cc4)c(=O)c3c1O)CC(C(C)(C)O)O2 (centres unmarked) [Compound 16, senegalensin]
viability at 24 h, 6.25 μg/mL [1]: 154 ± 1.59%
viability at 24 h, 12.5 μg/mL [1]: 139 ± 6.94%
viability at 24 h, 25 μg/mL [1]: 58.7 ± 2.23%
viability at 24 h, 50 μg/mL [1]: 6 ± 0.65%
viability at 24 h, 100 μg/mL [1]: 5.3 ± 0.01%
IC50 (RAW 264.7 cells): 51.5 µM
IC50 (A549 cells): 70.9 µM
viability at 6.25 μg/mL [2]: 126 ± 1.36%
viability at 12.5 μg/mL [2]: 116 ± 2.68%
viability at 25 μg/mL [2]: 97 ± 9.76%
viability at 50 μg/mL [2]: 6.25 ± 0.33%
viability at 100 μg/mL [2]: 4.53 ± 0.07%
IC50 (K562 cells): 21.5 µM
viability at 6.25 μg/mL [3]: 76.6 ± 3.38%
viability at 12.5 μg/mL [3]: 28.8 ± 0.39%
viability at 25 μg/mL [3]: 11.54 ± 0.06%
viability at 50 μg/mL [3]: 10.2 ± 0.15%
viability at 100 μg/mL [3]: 9.7 ± 0.15%
viability ([5]; A549, SW480, K562 and RAW 264.7 cells): 4.53 to 48.2%
viability at 6.25 μg/mL [4]: 166 ± 6.12%
viability at 12.5 μg/mL [4]: 142 ± 1.71%
viability at 25 μg/mL [4]: 122 ± 6.64%
viability at 50 μg/mL [4]: 6.6 ± 0.14%
viability at 100 μg/mL [4]: 6.09 ± 0.11%
IC50 (SW480 cells): 69.8 µM

CC(C)=CCc1c(O)c(CC=C(C)C)c2occ(-c3ccc(O)cc3)c(=O)c2c1O [Compound 10, 6,8-diprenylgenistein]
IC50 (RAW 264.7 cells): > 100 µM
IC50 (A549 cells): > 100 µM
IC50 (K562 cells): > 100 µM
viability ([5]; RAW 264.7 and SW480 cells): 5.66 to 77%
viability at 6.25 μg/mL [4]: 117.5 ± 0.31%
viability at 12.5 μg/mL [4]: 118.8 ± 0.92%
viability at 25 μg/mL [4]: 117 ± 3.08%
viability at 50 μg/mL [4]: 94.7 ± 3.85%
viability at 100 μg/mL [4]: 77 ± 3.95%
IC50 (SW480 cells): > 100 µM

COc1cc2c(cc1OC)[C@]1(O)C(=O)c3ccc4c(c3O[C@@H]1CO2)C=CC(C)(C)O4 [tephrosin]
cell toxicity ([6]; at a concentration of 3.125 μM): without cell toxicity
IC50 ([6]; read-out: anti-inflammatory activity IC50): < 10 µM

COc1cc(OC)c(-c2coc3c4c(ccc3c2=O)OC(C)(C)C=C4)cc1OC [barbigerone]
IC50 (HepG2 cell lines): 0.61 µM

C=C(C)C(O)Cc1c(O)c(CC=C(C)C)c2occ(-c3ccc(O)cc3)c(=O)c2c1O (centres unmarked) [Compound 13, isoerysenegalensein E]
viability at 24 h, 6.25 μg/mL [1]: 103 ± 8.01%
viability at 24 h, 12.5 μg/mL [1]: 100 ± 2.13%
viability at 24 h, 25 μg/mL [1]: 61.9 ± 3.12%
viability at 24 h, 50 μg/mL [1]: 47.3 ± 2.94%
viability at 24 h, 100 μg/mL [1]: 29.4 ± 3.72%
IC50 (RAW 264.7 cells): 56.1 µM
IC50 (A549 cells): > 100 µM
IC50 (K562 cells): > 100 µM
viability ([5]; RAW 264.7 and SW480 cells): 5.66 to 77%
viability at 6.25 μg/mL [4]: 94 ± 4.18%
viability at 12.5 μg/mL [4]: 92.8 ± 1.57%
viability at 25 μg/mL [4]: 90.4 ± 1.91%
viability at 50 μg/mL [4]: 89.5 ± 3.29%
viability at 100 μg/mL [4]: 59.5 ± 1.3%
IC50 (SW480 cells): > 100 µM

COc1ccc(-c2coc3c4c(ccc3c2=O)OC(C)(C)C=C4)cc1OC [4′,5′-dimethoxy-6,6-dimethylpyranoisoflavone]
IC50 (butyrylcholinesterase): 2.34 µM

C[C@H]1O[C@H](O[C@H]2[C@H](O)[C@@H](O)[C@@H](O[C@H]3[C@H](O)[C@@H](O)C(O)O[C@@H]3CO)O[C@@H]2CO)[C@H](O)[C@@H](O)[C@@H]1N[C@H]1C=C(CO)[C@@H](O)[C@H](O)[C@H]1O (some centres unmarked) [acarbose]
α-glucosidase inhibition, inhibition rate (%) (α-glucosidase [7]): 57.2 ± 0.8%
α-amylase inhibition, inhibition rate (%) (α-amylase): 58.5 ± 1.9%

berectones A
IC50 (α-glucosidase [8]): 144 µM

COc1cc2c(cc1OC)[C@@H]1C(=O)c3ccc4c(c3O[C@@H]1CO2)C=CC(C)(C)O4 [deguelin]
IC50 (butyrylcholinesterase): 14.2 µM

C=C(C)[C@H]1Cc2c(ccc3c2O[C@@H]2COc4cc(OC)c(OC)cc4[C@]2(O)C3=O)O1 [(−)-Hydroxyrotenone]
IC50 (HT-29): 0.1 µM
